“And” between values parts separate entries of the source, which are not always exact repeats. Equal values may be shown once.
Legend:
[1] = tested on: irradiated C3H/HeN mice infected with E. coli strain Bort; experiment: VEGF receptor antagonists (Compounds I and II): survival, bacterial counts, time of euthanasia; assay type: in vivo, mouse; settings: for Bacterial counts: blood bacterial count of individual animal bled at 40 hours after infection, 100 mg/Kg injected 16 hours after infection, FD given where no count; for Bacterial counts / Time of Death: 100 mg/kg; for Status: individual animal survival status code (1 or 0, not defined; 0 only at 168); for Time of Death: individual animal, time of death/euthanasia (hours after infection), 100 mg/Kg, ceftriaxone 50 ug/mouse at 40 hours
Method: (§1) Mice were pouched six days and irradiated five days before infection. Eight- to 12-week-old C3H/HeN mice were anesthetized with isofluorane and wiped with alcohol in the area caudal to their ears. Pouches were created at this site by subcutaneous injection of 2-3 ml of air, followed by the subcutaneous injection of 0.2 ml of a 0.5% solution of croton oil in olive oil. Twenty-four hours later, mice were irradiated using a gamma irradiator. Five days after irradiation, animals were infected with E. coli strain Bort by direct injection of the bacterial suspension into the pouches. After infection, animals were treated as described for each individual experiment. Animals were checked daily for signs of pain and distress, including diarrhea, lethargy, ruffled fur, lack of appetite, and poor body condition. Animals were euthanized when they became very lethargic and unable to move when touched. It was previously determined that when mice reach such conditions they will die within 6-8 hours.
Using the procedure described above, 76 mice were pouched, irradiated (495 rads) and infected (0.2 ml of 0.1 OD 600).
(II) (see WO 98/13354 and WO 00/132651). At 40 hours after infection, animals were bled and injected with the same solutions to which ceftriaxone was added to yield a solution containing 50 ug/mouse. Animals were injected with the solutions (no ceftriaxone) for 2 more days. Blood was used for BC and plasma. Two aliquots of 20 ul and an extra aliquot were prepared and stored at −80.

[2] = tested on: irradiated (490 rads) C3H/HeN mice with infected subcutaneous pouch; experiment: Immunocompromised mouse model of contained infection: ceftriaxone treatment, spleen CFU at death and survival; assay type: in vivo; settings: Ceftriaxone 0.3 mg/mouse daily
Excerpt: In order to test therapies intended at controlling systemic inflammatory response rather than the infection, it is desirable to control the infection to avoid problems that can derive from a high bacterial load. To this end we controlled the infection by using antibiotics. In this experiment, a subcutaneous pouch was induced in C3H/HeN animals. […] At Day 6 after induction of the pouches, mice were infected with 4.5×10^6 CFU/mouse. As animals became sick (as detected by a ruffled fur), each animal was assigned to one of two different groups, i.e. a group to be treated with 0.3 mg/mouse of ceftriaxone and a group to stay untreated. […] Once an animal was assigned to the treated group, it received a daily injection of antibiotic until the animal succumbed to death. […] At death, spleens were removed from the animals, homogenized in PBS, and the CFU determined.
The bacterial counts in the spleens of treated animals are about 3 logs of magnitude lower than in the untreated animals. The conditions employed should therefore be useful for testing therapies to prevent the progression from sepsis to septic shock in the absence of overwhelming bacterial infection.

[3] = tested on: irradiated C3H/HeN mice infected with E. coli strain Bort; experiment: Ethyl pyruvate plus ceftriaxone, survival in immunocompromised infected mouse model; assay type: in vivo; settings: for Bacterial counts / Status / Status.dead / Time death: one animal per row, listed as EP; for Status: 1 = dead, 0 = alive
Method: as §1, with “touched.” for “touched. It was previously determined that when mice reach such conditions they will die within 6-8 hours.”
Mice were pouched and irradiadiated as described above. The mice were assigned to four different groups: (1) ten mice were untreated (control mice); (2) nineteen mice were treated with 0.1 mg/mouse of ceftriaxone (CEF) once every 24 hours […] (saline control mice); (3) twenty mice were treated with 0.1 mg/mouse ceftriaxone and 35 mg/ml ethyl pyruvate once every 24 hours for four days (EP mice); and (4) ten mice were treated as for group (3) and received an additional injection of 35 mg/ml of EP at 30 and 54 hour timepoints (EP 2x mice).

With `COc1cc2c(Nc3ccc(Br)cc3F)ncnc2cc1OCC1CCN(C)CC1` [Compound II] as the compound, how does the Bacterial counts [1] read?
The Bacterial counts was 1.0E+09 and 1.0E+07 and 9.0E+06 and 3.0E+06 and 2.0E+06 (3×) and 5.0E+05 and 3.0E+05 (2×) and 5.0E+04 and 3.0E+04 and 1.6E+04 and 2.0E+03 and 1.0E+02 (2×) and <100 (9×).

And the Status [1]?
The Status was 1 (23×) and 0 (4×).

And the “Time of Death” value [1]?
Its value is 40 (2×) and 46 (4×) and 48 (7×) and 64 (4×) and 160 (3×) and 112 (3×) and 168 (4×).

What does the source list for `CO/N=C(\C(=O)N[C@@H]1C(=O)N2C(C(=O)O)=C(CSc3nc(=O)c(=O)[nH]n3C)CS[C@H]12)c1csc(N)n1` [Ceftriaxone, ceftriaxone]?
CFU/spleen, Average ([2]; average of treated animals): 7.01E+05 CFU/spleen; CFU/spleen ([2]; spleens removed at death, single animals): 2.60E+04 CFU/spleen and 3.00E+03 CFU/spleen and 8.00E+03 CFU/spleen and 8.00E+05 CFU/spleen (2×) and 1.80E+04 CFU/spleen and 6.00E+02 CFU/spleen and 1.20E+04 CFU/spleen and 2.00E+03 CFU/spleen and 4.00E+04 CFU/spleen and 6.00E+06 CFU/spleen

Which “survival relative to nontreated or CEF-treated controls” value ([3]; 35 mg/ml ethyl pyruvate with 0.1 mg/mouse ceftriaxone, every 24 hours for four days (EP) or with extra doses at 30 and 54 h (EP 2x)) does the source give for `CCOC(=O)C(C)=O` [ethyl pyruvate] here?
The value was “significant survival advantage”.

What about the “Bacterial counts” value ([3]; Group 3 (EP mice): 0.1 mg/mouse ceftriaxone and 35 mg/ml ethyl pyruvate once every 24 hours for four days) of the same compound?
Its value is 1.0E+04 and 3.0E+04 and 1.2E+05 and 2.0E+05 (3×) and 3.0E+05 (2×) and 1.3E+04 and 2.5E+04 and 3.5E+04 and 6.5E+04 and 7.6E+04 and 8.0E+04 and 1.2E+04 and 2.0E+03 and 1.6E+03 (2×) and 1.6E+04 and 4.0E+04.

What about the Status ([3]; Group 3 (EP mice)) of the same compound?
The Status was 1 (19×) and 0.

And the Status.dead ([3]; Group 3 (EP mice))?
Its Status.dead is “DEAD (19×) and ALIVE”.

What about the Time death ([3]; Group 3 (EP mice)) of the same compound?
The Time death was 48 (6×) and 54 (8×) and 56 and 78 and 102 and 168 and 174 (2×).

What about the “Bacterial counts” value ([3]; Group 4 (EP 2x mice): as group 3 plus additional 35 mg/ml EP at 30 and 54 hour timepoints) of the same compound?
The value was 2.0E+05 and 5.0E+04 (2×) and 3.0E+04 (2×) and 1.0E+04 and 1.7E+03 and 0.0E+00 and 1.0E+03 and 2.4E+03.

And the Status ([3]; Group 4 (EP 2x mice))?
The Status was 1 (7×) and 0 (3×).

What about the Status.dead ([3]; Group 4 (EP 2x mice)) of the same compound?
The Status.dead was “DEAD (7×) and ALIVE (3×)”.

What about the Time death ([3]; Group 4 (EP 2x mice)) of the same compound?
The Time death was 48 and 54 and 62 and 72 and 96 and 168 (2×) and 174 (3×).

How did the Bacterial counts [1] turn out when `CC(C)(N)c1ccc(-c2nc(Nc3ccc(CCN4CCOCC4)cc3)ncc2C#N)cc1` [Compound I] was run?
Its Bacterial counts is 1.3E+07 and 4.0E+06 and 3.0E+06 and 2.0E+06 and 1.0E+06 and 3.0E+05 (3×) and 2.0E+05 (2×) and 3.0E+04 and 1.7E+03 and 1.0E+03 and 1.0E+02 (5×) and <100 (7×).

And the Status [1]?
Its Status is 1 (27×) and 0.

What about the “Time of Death” value [1] of the same compound?
The value was 40 (3×) and 46 (5×) and 48 (4×) and 64 and 88 and 94 and 112 (8×) and 160 and 96 (3×) and 168.

From patent US20070083333A1, “Modeling of systemic inflammatory response to infection” (priority 2003, published 2007)
